The text below walks through data of EP4813463A2, “TYK2 INHIBITORS AND COMPOSITIONS AND METHODS THEREOF” (Lynk Pharmaceuticals Co. Ltd., priority 2023, dated 2024).

The test concerns the target T1, TYK2-JH2 domain (Homo sapiens, UniProt P29597).
T1 construct: JAK1-JH2 domain or TYK2-JH2 domain enzyme in assay buffer
The experiment in a line: Binding activity test for JH2 domain of TYK2 (Tb-antibody/tracer FRET). Here is the method: Binding Activity test for JH2 domain of JAK1 and TYK2 […] Add 8μL/well in echo source plate, echo will add 75nL/well with 3-fold serial dilution for 11 points in assay plate. 75nL DMSO for high control and low control. […] For low control, add 5μL/well assay buffer. And then spin down at 1000rpm and centrifuge for 30 seconds. After enzyme system prepared, add 5μL of Tb-antibody solution into each well of assay plate. Spin down at 1000 rpm and centrifuge for 30sec. After Tb-antibody added, also add 5μL of tracer into the assay plate. Spin down at 1000rpm and centrifuge for 30sec. Incubate for […] at 25°C firstly and then continue to incubate the plate at 4°C overnight. Read by envision in FRET mode. The Luminescence value was recorded by a multi-label reader Envision (PerkinElmer). […] Table 2. IC50 on JH2 domain activity (nM)

Setting [1] is: JH2 domain enzyme; 60 min at 25°C, then 4°C overnight; read-out: TYK2 JH2 Binding IC50.
[2] abbreviates: read-out: TYK2 JH2 Binding IC50; JH2 domain enzyme; 60 min at 25°C, then 4°C overnight.

Like-named read-outs stand apart in the source and are kept apart here. Some results are limits rather than exact numbers.

One may read the IC50 as the concentration needed to halve the response being measured.

T1 sequence (P29597 589-875 limits assumed): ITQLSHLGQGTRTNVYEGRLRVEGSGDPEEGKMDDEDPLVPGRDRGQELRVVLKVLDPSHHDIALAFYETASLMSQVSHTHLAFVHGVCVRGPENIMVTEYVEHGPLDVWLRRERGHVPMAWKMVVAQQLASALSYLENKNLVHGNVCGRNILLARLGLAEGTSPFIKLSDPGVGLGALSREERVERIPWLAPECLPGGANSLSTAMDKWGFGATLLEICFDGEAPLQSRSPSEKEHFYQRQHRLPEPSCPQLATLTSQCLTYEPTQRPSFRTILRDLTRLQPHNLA

As to `CCOC(c1ccc2c(c(Nc3cc(NC(=O)C4CC4)ncc3C(=O)OC)nn2C)c1OC)C(F)(F)F` (racemic) [Example 106, Methyl 6-(cyclopropanecarboxamido)-4-((5-(1-ethoxy-2,2,2-trifluoroethyl)-4-methoxy-1-methyl-1H-indazol-3-yl)amino)nicotinate], the IC50 under setting [1] is 1.31 nM. Turning to `COC(=O)c1c(Nc2nn(C)c3ccc(C(OC)C(F)(F)F)c(OC)c23)cc(NC(=O)C2CC2)nc1F` (single isomer, unassigned) [Example 98A, Methyl (R*)-6-(cyclopropanecarboxamido)-2-fluoro-4-((4-methoxy-1-methyl-5-(2,2,2-trifluoro-1-methoxyethyl)-1H-indazol-3-yl)amino)nicotinate], the IC50 under setting [1] is more than 298 nM.

As for `COC(=O)c1c(Nc2nn(C)c3ccc(C(OC)C(F)(F)F)c(OC)c23)cc(NC(=O)C2CC2)nc1F` (single isomer, unassigned) [Example 98B, Methyl (S*)-6-(cyclopropanecarboxamido)-2-fluoro-4-((4-methoxy-1-methyl-5-(2,2,2-trifluoro-1-methoxyethyl)-1H-indazol-3-yl)amino)nicotinate], the IC50 under setting [1] worked out at 3.88 nM. Take `CCOC(c1ccc2c(c(Nc3cc(NC(=O)C4CC4)ncc3C(=O)OC)nn2C)c1OC)C(F)(F)F` (single isomer, unassigned) [Example 106A, Methyl (R*)-6-(cyclopropanecarboxamido)-4-((5-(1-ethoxy-2,2,2-trifluoroethyl)-4-methoxy-1-methyl-1H-indazol-3-yl)amino)nicotinate]: the IC50 under setting [1] was determined as 4.31 nM.

For `COC(=O)c1cnc(NC(=O)C2CC2)cc1Nc1nn(C)c2ccc(C(OC)C(C)(F)F)c(OC)c12` (single isomer, unassigned) [Example 115B, Methyl (R*)-6-(cyclopropanecarboxamido)-4-((5-(2,2-difluoro-1-methoxypropyl)-4-methoxy-1-methyl-1H-indazol-3-yl)amino)nicotinate], under setting [1], the concentration for half-maximal inhibition (IC50) was determined as 1.22 nM.

As to `COC(=O)c1cnc(NC(=O)[C@@H]2C[C@@H]2F)cc1Nc1nn(C)c2ccc(C(O)C(F)(F)F)c(OC)c12` (single isomer, unassigned) [Example 122B, Methyl 6-((1S,2S)-2-fluorocyclopropane-1-carboxamido)-4-((4-methoxy-1-methyl-5-((R*)-2,2,2-trifluoro-1-hydroxyethyl)-1H-indazol-3-yl)amino) nicotinate], the IC50 under setting [2] worked out at 0.733 nM. `[2H]C([2H])([2H])OC(c1ccc2c(c(Nc3cc(NC(=O)C4CC4)ncc3C(=O)OC)nn2CCOC)c1OC)C(F)(F)F` (single isomer, unassigned) [Example 157B, Methyl (R*)-6-(cyclopropanecarboxamido)-4-((4-methoxy-1-(2-methoxyethyl)-5-(2,2,2-trifluoro-1-methoxyethyl)-1H-indazol-3-yl)amino)nicotinate]: the IC50 under setting [1] worked out at 1.41 nM. For the compound `[2H]C([2H])([2H])O[C@H](c1ccc2c(c(Nc3cc(NC(=O)C4CC4)ncc3C(=O)OC)nn2C([2H])([2H])[2H])c1OC)C(F)(F)F` [Example 53A, Methyl (R)-6-(cyclopropanecarboxamido)-4-((4-methoxy-1-(methyl-d3)-5-(2,2,2-trifluoro-1-(methoxy-d3)ethyl)-1H-indazol-3-yl)amino)nicotinate], the IC50 under setting [1] is 0.627 nM. On to `[2H]C([2H])([2H])OC(=O)c1cnc(NC(=O)C2CC2)cc1Nc1ncc2ccn(C([2H])([2H])C([2H])([2H])[2H])c2c1OC([2H])([2H])[2H]` [Example 61, Methyl-d3 6-(cyclopropanecarboxamido)-4-((1-(ethyl-d5)-7-(methoxy-d3)-1H-pyrrolo[3,2-c]pyridin-6-yl)amino) nicotinate], for which the IC50 under setting [2] stood at 1.36 nM. Take `[2H]C([2H])([2H])NC(=O)c1cnc(NC(=O)C2CC2)cc1Nc1cnn2ccc(C)c(NC)c12` [Example 97, 6-(Cyclopropanecarbonylamino)-4-[[5-methyl-4-(methylamino)pyrazolo [1,5-a]pyridin-3-yl]amino]-N-(trideuteriomethyl)pyridine-3-carboxamide]: under setting [1], the IC50 was found to be 2.37 nM. Still for that read-out and setting: as for `COC(=O)c1cnc(NC(=O)C2CC2)cc1Nc1cnn2ccc(C3CCCO3)c(OC)c12` (stereo not shown) [Example 99, Methyl 6-(cyclopropanecarboxamido)-4-((4-methoxy-5-(tetrahydrofuran-2-yl)pyrazolo[1,5-a]pyridin-3-yl)amino)nicotinate], the figure is 1.79 nM; as for `COC(=O)c1nnc(NC(=O)C2CC2)cc1Nc1nn(C)c2ccc(C(OC)C(F)(F)F)c(OC)c12` (stereo not shown) [Example 101, Methyl 6-(cyclopropanecarboxamido)-4-((4-methoxy-1-methyl-5-(2,2,2-trifluoro-1-methoxyethyl)-1H-indazol-3-yl)amino)pyridazine-3-carboxylate], more than 298 nM. Still for that read-out and setting: as for `COC(=O)c1cnc(NC(=O)C2CC2)cc1Nc1ncn2ccc(C)c(OC)c12` [Example 103, Methyl 6-(cyclopropanecarboxamido)-4-((8-methoxy-7-methylimidazo[1,5-a]pyridin-1-yl)amino)nicotinate], the figure is 5.84 nM; as for `COC(=O)c1cnc(NC(=O)C2CC2)cc1Nc1nn(COCC[Si](C)(C)C)c2ccc(C(OC)C(F)(F)F)c(OC)c12` (stereo not shown) [Example 104, Methyl 6-(cyclopropanecarboxamido)-4-((4-methoxy-5-(2,2,2-trifluoro-1-methoxyethyl)-1-((2-(trimethylsilyl)ethoxy)methyl)-1H-indazol-3-yl)amino)nicotinate], 13.7 nM. In the case of `COC(=O)c1cnc(NC(=O)C2CC2)cc1Nc1nccc2c1N(C)[C@@H](C)c1nn(C)nc1-2` [Example 109, Methyl (S)-6-(cyclopropanecarboxamido)-4-((2,4,5-trimethyl-4,5-dihydro-2H-[1,2,3]triazolo[4,5-c][1,7]naphthyridin-6-yl)amino)nicotinate], under setting [1], the IC50 turned out to be 0.836 nM.

In the case of `COC(=O)c1cnc(NC(=O)C2CC2)cc1Nc1ncn2ccc(C(OC)C(F)(F)F)c(OC)c12` (stereo not shown) [Example 110, Methyl 6-(cyclopropanecarboxamido)-4-((8-methoxy-7-(2,2,2-trifluoro-1-methoxyethyl)imidazo[1,5-a]pyridin-1-yl)amino)nicotinate], the IC50 under setting [1] worked out at 2.47 nM. In the case of `COC(=O)c1cnc(NC(=O)C2CC2)cc1Nc1nn(C)c2ccc(C(OC)C(C)C)c(OC)c12` (stereo not shown) [Example 118, Methyl 6-(cyclopropanecarboxamido)-4-((4-methoxy-5-(1-methoxy-2-methylpropyl)-1-methyl-1H-indazol-3-yl)amino)nicotinate], the IC50 under setting [1] was found to be 0.943 nM. `COC(=O)c1cnc(NC(=O)C2CC2)cc1Nc1nn(C2CC2)c2ccc(C(OC)C(F)(F)F)c(OC)c12` (stereo not shown) [Example 119, Methyl 6-(cyclopropanecarboxamido)-4-((1-cyclopropyl-4-methoxy-5-(2,2,2-trifluoro-1-methoxyethyl)-1H-indazol-3-yl)amino)nicotinate]: the IC50 under setting [1] was determined as 0.308 nM. With `CCC(OC)c1ccc2c(c(Nc3cc(NC(=O)C4CC4)ncc3C(=O)OC)nn2C)c1OC` (stereo not shown) [Example 121, Methyl 6-(cyclopropanecarboxamido)-4-((4-methoxy-5-(1-methoxypropyl)-1-methyl-1H-indazol-3-yl)amino)nicotinate], under setting [1], the IC50 turned out to be 0.405 nM.
